Laboratory results published in patent publication US20170129919A1, “CYCLIC DIPEPTIDE-CONTAINING COMPOSITION” (Suntory Holdings Limited, priority 2014, published 2017).
Converted amounts (≈) assume the structure as drawn.

What was measured:
[1] = Stability of standard product in aqueous solution (LC-MS/MS content measurement); format: physicochemical
xanthine oxidase (XO) [2] = test: In vitro xanthine oxidase (XO) inhibiting action; format: biochemical; details: Table 1; PBS pH 7.5, xanthine substrate, absorbance at 295 nm after 30 minutes; mean±standard error; read-out: IC50 (Activity of Inhibiting XO of Tyr-Containing Cyclic Dipeptides)
Method: The in vitro xanthine oxidase (XO) inhibiting action was studied on 210 kinds of cyclic dipeptides, linear dipeptides Tyr-Gly and Gly-Tyr, and an amino acid Tyr. […] Thereafter, 20 μL of a 250 μM xanthine solution previously dissolved in the PBS was added thereto, and the absorbance after 30 minutes was measured using a spectrophotometer (Synegy HT, manufactured by Bio Tek). The XO inhibition rate (%) at each concentration was calculated by the following calculation formula, to obtain activities of inhibiting XO (IC50 values).

xanthine oxidase (XO) [3] = target: T1, xanthine oxidase (XO) (Mus musculus, UniProt Q00519); test: XO activity in the liver and sera of hyperuricemic mice; format: in vivo, BALBc mice; details: 100 mg/kg orally
T1 construct: the collected supernatant was subjected to an assay for a xanthine oxidase (XO) activity; from tissue; host or cells: liver homogenate supernatant and serum of male BALBc mice (potassium oxonate hyperuricemia model)
T1 sequence (Q00519 whole entry): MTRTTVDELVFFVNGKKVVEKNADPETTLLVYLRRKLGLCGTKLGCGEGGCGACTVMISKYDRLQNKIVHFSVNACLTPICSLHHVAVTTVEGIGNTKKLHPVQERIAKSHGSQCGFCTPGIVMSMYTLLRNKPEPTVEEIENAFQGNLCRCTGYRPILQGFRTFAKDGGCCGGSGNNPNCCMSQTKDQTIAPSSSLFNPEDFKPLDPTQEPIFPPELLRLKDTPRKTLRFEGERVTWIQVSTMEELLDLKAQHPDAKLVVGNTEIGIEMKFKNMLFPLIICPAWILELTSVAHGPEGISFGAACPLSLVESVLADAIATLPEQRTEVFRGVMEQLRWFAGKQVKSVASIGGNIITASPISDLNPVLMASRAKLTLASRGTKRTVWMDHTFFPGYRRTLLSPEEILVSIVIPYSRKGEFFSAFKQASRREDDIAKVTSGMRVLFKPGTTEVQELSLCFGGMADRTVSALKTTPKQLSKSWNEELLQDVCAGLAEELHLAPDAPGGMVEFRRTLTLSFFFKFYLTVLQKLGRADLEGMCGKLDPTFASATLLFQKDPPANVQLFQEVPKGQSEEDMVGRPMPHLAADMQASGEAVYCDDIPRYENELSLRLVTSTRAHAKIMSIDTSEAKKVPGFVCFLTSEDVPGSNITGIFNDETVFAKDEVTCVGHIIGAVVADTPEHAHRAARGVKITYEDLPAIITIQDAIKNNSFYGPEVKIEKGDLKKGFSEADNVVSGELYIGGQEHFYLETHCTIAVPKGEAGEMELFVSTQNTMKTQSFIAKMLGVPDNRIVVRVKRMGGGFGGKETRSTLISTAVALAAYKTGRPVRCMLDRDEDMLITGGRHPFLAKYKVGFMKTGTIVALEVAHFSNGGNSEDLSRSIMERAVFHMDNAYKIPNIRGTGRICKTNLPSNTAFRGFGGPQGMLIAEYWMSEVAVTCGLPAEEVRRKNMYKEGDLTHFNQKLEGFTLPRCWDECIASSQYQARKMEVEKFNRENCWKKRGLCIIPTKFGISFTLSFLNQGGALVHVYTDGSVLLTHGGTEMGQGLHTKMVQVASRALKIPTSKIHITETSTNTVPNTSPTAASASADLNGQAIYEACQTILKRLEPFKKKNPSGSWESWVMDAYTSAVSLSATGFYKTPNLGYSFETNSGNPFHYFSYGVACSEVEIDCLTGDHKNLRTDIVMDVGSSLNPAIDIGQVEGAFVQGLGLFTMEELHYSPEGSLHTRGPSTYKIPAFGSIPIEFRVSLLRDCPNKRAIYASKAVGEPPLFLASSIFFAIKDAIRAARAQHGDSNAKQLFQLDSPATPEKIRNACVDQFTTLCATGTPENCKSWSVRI
Method: As to the animals used, male 7-week old BALBc mice were purchased from CLEA Japan, Inc., and subjected to an experiment after a one-week period of conditioning. […] During the period of conditioning, the mice were allowed to take a commercially available feed (CE-2, manufactured by CLEA Japan, Inc.) and distilled water ad libitum.
Next, the livers of mice were added to a mixture of an ice-cooled protease inhibitor cocktail and an EDTA-containing tissue protein extraction reagent (T-PER), homogenized, and then centrifuged at 15,000 rpm, at 4° C. for 15 minutes, and the collected supernatant was subjected to an assay for a xanthine oxidase (XO) activity. […]

Solubility in water = format: physicochemical; details: Table 5
Method: Concretely, each compound was added to distilled water (manufactured by Otsuka Pharmaceutical Co., Ltd.) at an ambient temperature (25° C.) so as to have a final concentration of 5 mM, and the mixture was stirred under ultrasonication for 30 minutes to dissolve. […] However, none of the compounds dissolved, so that distilled water was further added thereto so as to have a final concentration of 0.01 mM, and the mixture was stirred under ultrasonication for 30 minutes, but still no compounds dissolved.

hyperuricemic mice = test: Action of lowering serum uric acid levels for hyperuricemic mice (potassium oxonate model); format: in vivo, BALBc mice; details: FIG. 2
Method: As to the animals used, male 7-week old BALBc mice were purchased from CLEA Japan, Inc., and subjected to an experiment after a one-week period of conditioning. The animals were bred in a breeding room with air-conditioning facilities (temperature: 23.5°±1.0° C., humidity: 55±10 RH %, the number of ventilation: 12 to 15 times/hour, illuminated: from 7:00 to 19:00 each day). During the period of conditioning, the mice were allowed to take a commercially available feed (CE-2, manufactured by CLEA Japan, Inc.) and distilled water ad libitum.
Oxonic acid is a substance that raises a blood uric acid level by inhibiting a urikase, a metabolic enzyme for uric acid. In view of the above, potassium oxonate (PO) was administered, thereby generating hyperuricemic model animals (see, Planta Med 2009; 75:302-306). Studies were made on the following 6 groups:
In all the groups that include PO administration, PO previously suspended in a 0.5% aqueous CMC-Na solution at 250 mg/kg was administered, and Normal Group was administered with a 0.5% aqueous CMC-Na solution, each being administered intraperitoneally. […] After 2 hours from the administration with PO, the blood was collected from the abdominal vena cava under anesthesia. After blood removal, the liver was harvested. The collected blood was allowed to stand at room temperature for 45 minutes, and centrifuged at 8,000 rpm for 10 minutes to recover sera. Here, the sera and the liver were preserved at −80° C. until the measurements were carried out.
The serum uric acid level was measured using 7180 Clinical Analyzer (manufactured by Hitachi Technologies).
The actions of lowering serum uric acid levels of soybean peptide heat-treated products were studied using hyperuricemic model animals, in the same manner as in Test Example 2. Concretely, the animals used were furnished in the same manner as in Test Example 2, and studies were made on the following 5 groups.
For each of the above-mentioned groups, the administration and the blood collection were carried out in the same manner as in Test Example 2 to measure a serum uric acid level. […]
Here, the heat-treated product of the soybean peptide obtained by dissolving a soybean peptide (Hinute AM, manufactured by FUJI OIL, CO., LTD.) in distilled water in a concentration of 200 mg/mL, heating to 132° C. for 3 hours, and lyophilizing the heated mixture was used. The content of the cyclic dipeptide of the soybean peptide heat-treated product was measured according to LC-MS/MS under the following conditions. […]

Compound: O=C1NC(Cc2ccc(O)cc2)C(=O)NC1CS (stereo not shown) [Cyclo(Tyr-Cys)]
- stability of the standard product in an aqueous solution [1]: unstable in an aqueous solution
- IC50 (xanthine oxidase (XO) [2]): 77.2 ± 4.7 µM

Compound: O=C1CNC(=O)C(Cc2ccc(O)cc2)N1 (stereo not shown) [Cyclo(Tyr-Gly), cyclotyrosylglycine]
- xanthine oxidase activity in the sera (xanthine oxidase (XO) [3]; FIG. 3 lower panel): inhibited
- xanthine oxidase activity in the liver (xanthine oxidase (XO) [3]; FIG. 3 upper panel): inhibited
- solubility in water (in words) (Solubility in water): high solubility in water
- solubility at 30 min (Solubility in water; distilled water, 25° C., ultrasonication 30 minutes, visual examination, tested at 5, 1, 0.1, 0.01 mM, insoluble = not dissolved at 0.01 mM): 1000 µM (≈ 220 µg/mL)
- IC50 (xanthine oxidase (XO) [2]): 49 ± 3 µM
- serum uric acid level vs PO Group (hyperuricemic mice; 30 mg/kg orally): significant difference in effects on the PO Group
- serum uric acid level vs PO Group (hyperuricemic mice; 100 mg/kg orally): significant difference in effects on the PO Group
- action of lowering serum uric acid level, dose dependence (hyperuricemic mice; 10, 30, 100 mg/kg orally, 1 h after PO 250 mg/kg i.p., blood 2 hours after PO): action of lowering a uric acid level in a dose-dependent manner
